Experimental data published in US8765733B2, “Amine substituted methanesulfonamide derivatives as vanilloid receptor ligands” (Gruenenthal GmbH, priority 2011, dated 2014).

Target: vanilloid receptor 1 (VR1/TRPV1 receptor) (Homo sapiens, UniProt Q8NER1)
Experiment: FLIPR functional assay (Ca2+ influx, capsaicin) on the vanilloid receptor 1
Format: cell-based
Conditions: capsaicin (Cap) stimulus, compound at 5 μM

Row | inhibition at 5 µM (read-out: inhibition (as a percentage) Cap, (human being)) [%] | inhibition (as a percentage) Cap, (human being) [%@5 μM] | Molecule
1 | 58 |  | CC1CCN(c2nc(C(F)(F)F)ccc2CNC(=O)C(C)c2ccc(F)c(CNS(C)(=O)=O)c2)CC1 (centres unmarked) [Example 66, 2-(4-fluoro-3-(methylsulfonamidomethyl)phenyl)-N-((2-(4-methylpiperidin-1-yl)-6-(trifluoromethyl)pyridin-3-yl)methyl)propanamide]
2 |  | 12 | N-(2-fluoro-5-(3-((2-(4-methylpiperidin-1-yl)-6-(trifluoromethyl)pyridin-3-yl)methyl)ureido)benzyl)methanesulfonamide [Example 65]
